Measurements from patent US12263248B2, “Compounds and compositions for intracellular delivery of therapeutic agents” (ModernaTX, Inc., priority 2018, dated 2025).

Key:
luciferase (Luc) mRNA [1] = test: Luc expression in liver, lung, spleen and femur 6 hours after intravenous administration; assay type: in vivo; details: mice, 0.5 mpk; for Total Flux Liver / Total Flux Lung / Total Flux Spleen / Total Flux Femur: intravenous
Procedure, shortened: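 LNP-formulated mRNA given IV to mice (n=3) at 0.5 mpk; at 6 h, bioluminescence imaged ex vivo 15 min after IP D-luciferin (15 mg/mL, 200 μL), organs imaged within 25 min. Values are total flux by region of interest.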

luciferase (Luc) mRNA [2] = test: Luc expression, whole body bioluminescence after intravenous administration to mice; assay type: in vivo; details: for Fold increase in total body Luc Flux relative to MC3 at 6 h: Table 3A, i.v. administration; for Total Flux 3 hours / Total Flux 6 hours / Total Flux 24 hours: Luc mRNA
Procedure, shortened: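 Bioluminescence, read as region-of-interest total flux at 3, 6 and 24 h, followed a single 0.5 mg/kg intravenous dose of Luc mRNA-loaded nanoparticles in mice (n=6). Luciferin substrate (200 μL, 15 mg/mL in PBS) was injected intraperitoneally into CD-1 mice 15 minutes ahead of each imaging point.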

IL-6, IP-10 = test: Cytokine induction in mice upon intravenous administration; assay type: in vivo; design: Cytokine induction IL-6 / Cytokine induction IP-10: unit not given here; details: 0.5 mpk, 6 hours; for IL-6 induction / IP-10 induction: i.v., in words; for Cytokine induction IL-6 / Cytokine induction IP-10: intravenous
Text: The introduction of foreign material into a mammalian body induces an innate immune response that promotes cytokine production. Such immune responses to, for example, nanoparticle compositions including therapeutic and/or prophylactics, are undesirable. The induction of certain cytokines is thus measured to evaluate the […] of nanoparticle compositions. The concentrations of various cytokines in mice upon intravenous administration of nanoparticle compositions presented in Table 1A at a dosage of 0.5 mpk was measured at 6 hours. The standard MC3 formulation and a PBS control were also tested. As is evident in Table 7, IL-6 induction was highest for compositions including Compounds 1, 3, 9, 19, and 26, while IP-10 induction was highest for compositions including Compounds 3, 4, 7, 20, and 26. IL-6 induction was lowest for compositions including Compounds 4, 11, 12, and 28. IP-10 induction was lowest for compositions including Compounds 10, 11, 12, 13, 15, 17, and 18.

[3] = Encapsulation efficiency of RNA (QUANT-IT RIBOGREEN RNA assay); assay type: physicochemical; details: Table 1A
Procedure, shortened: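 RiboGreen fluorescence (ex ~480, em ~520 nm) compared between intact samples and Triton X-100-lysed samples after 15 min at 37 °C in TE buffer, pH 7.5. Percent free RNA is the blank-corrected intact/disrupted ratio.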

[4] = Particle size and polydispersity index of nanoparticle compositions (Zetasizer Nano ZS); assay type: physicochemical; details: Table 1A; for Size (nm): lipid:DSPC:cholesterol:PEG-DMG 50:10:38.5:1.5 mol %
Procedure, shortened: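 Measured in 1×PBS by Zetasizer Nano ZS.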

[5] = Apparent (surface) pKa of the LNP formulation (TNS assay); assay type: physicochemical; details: Table 1A
Procedure, shortened: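 Fluorescence of TNS probe added to LNP samples (mRNA 0.04 mg/mL) was read across 21 buffers of pH about 3-12, triplicate per pH. The inflection point of the sigmoidal fluorescence-vs-pH curve, […], gives apparent pKa; method validated in 1× PBS and Tris/sucrose buffer.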

| Compound | Flux in the spleen (luciferase (Luc) mRNA [1]; i.v., in words) | Total Flux Liver (luciferase (Luc) mRNA [1]) | Total Flux Lung (luciferase (Luc) mRNA [1]) | Total Flux Spleen (luciferase (Luc) mRNA [1]) | Fold increase in total body Luc Flux relative to MC3 at 6 h (luciferase (Luc) mRNA [2]) | Total Flux 3 hours (luciferase (Luc) mRNA [2]; mice, i.v., 0.5 mg/kg) | Total Flux 6 hours (luciferase (Luc) mRNA [2]; mice, i.v., 0.5 mg/kg) | Total Flux 24 hours (luciferase (Luc) mRNA [2]; mice, i.v., 0.5 mg/kg) | total flux at 3 hours (luciferase (Luc) mRNA [2]; mice, i.v., 0.5 mg/kg, comparison in words) | IL-6 induction (IL-6, IP-10) | IP-10 induction (IL-6, IP-10) | Cytokine induction IL-6 (IL-6, IP-10) | Cytokine induction IP-10 (IL-6, IP-10) | EE (%) [3] [%] | PDI [4] | Size (nm) [4] [nm] | pKa [5] | Total Flux Femur (luciferase (Luc) mRNA [1]) | flux at all timepoints measured (luciferase (Luc) mRNA [2]; mice, i.v., 0.5 mg/kg, 3, 6 and 24 hour, in words) |
| --- | --- | --- | --- | --- | --- | --- | --- | --- | --- | --- | --- | --- | --- | --- | --- | --- | --- | --- | --- |
| CCCCCCCCC(CCCCCCCC)OC(=O)CCCCCCCN(CCO)CCCCCCCC [Compound 4, Heptadecan-9-yl 8-((2-hydroxyethyl)(octyl)amino)octanoate] | highest | 5.26E+09 | 6.22E+07 | 4.09E+08 | 1.31 | 1.37E+11 | 6.01E+10 | 1.13E+09 | highest | lowest | highest | 13.1375 | 2253.09 | 95.10 | 0.21 | 120.5 | 6.33 |  |  |
| CCCCCCCCCOC(=O)CCCCCCCN(CCCCCCCC(=O)OC(CCCCCCCC)CCCCCCCC)CC(C)O (stereo not shown) [Compound 10, Heptadecan-9-yl 8-((2-hydroxypropyl)(8-(nonyloxy)-8-oxooctyl)amino) octanoate] |  | 3.22E+08 | 8.85E+05 | 8.17E+06 |  | 6.03E+08 | 2.37E+09 | 4.04E+07 |  |  | lowest | 88.81 | 138.16 | 89.60 | 0.18 | 102.9 | 6.09 | 5.09E+05 |  |
| CCCCCCCCCOC(=O)CCCCCCCN(CCCCCCCC(=O)OC(CCCCCCCC)CCCCCCCC)C[C@@H](C)O [Compound 11, Heptadecan-9-yl (R)-8-((2-hydroxypropyl)(8-(nonyloxy)-8-oxooctyl)amino)octanoate] |  | 8.03E+08 | 1.35E+07 | 1.04E+08 |  | 3.38E+09 | 7.11E+09 | 1.15E+08 |  | lowest | lowest | 0.14 | 44.84 | 92.47 | 0.13 | 129.6 | 5.97 |  |  |
| CCCCCCCCCOC(=O)CCCCCCCN(CCCCCCCC(=O)OC(CCCCCCCC)CCCCCCCC)CC(O)CC (stereo not shown) [Compound 13, Heptadecan-9-yl 8-((2-hydroxybutyl)(8-(nonyloxy)-8-oxooctyl)amino) octanoate] |  | 2.25E+07 | 2.21E+05 | 7.09E+05 |  | 1.02E+08 | 1.56E+08 | 1.47E+06 |  |  | lowest | 29.07 | 126.29 | 92.28 | 0.13 | 79.4 | 5.67 | 1.35E+05 |  |
| CCCCCCCCCOC(=O)CCCCCCCN(CCCCCCCC(=O)OC(CCCCCCCC)CCCCCCCC)CCOC [Compound 15, Heptadecan-9-yl 8-((2-methoxyethyl)(8-(nonyloxy)-8-oxooctyl)amino)octanoate] |  | 6.23E+06 | 6.41E+04 | 9.01E+05 |  | 4.31E+08 | 4.41E+07 | 2.05E+06 |  |  | lowest | 64.65 | 184.30 | 92.47 | 0.094 | 111.1 | 5.58 | 5.93E+04 |  |
| CCCCCCCCCOC(=O)CCCCCCCN(CCCCCCCC(=O)OC(CCCCCCCC)CCCCCCCC)CCCOC [Compound 16, Heptadecan-9-yl 8-((3-methoxypropyl)(8-(nonyloxy)-8-oxooctyl)amino) octanoate] |  | 3.17E+07 | 4.18E+05 | 5.43E+06 | 0.02 | 2.58E+08 | 5.45E+08 | 2.37E+07 |  |  |  | 32.01 | 206.75 | 91.32 | 0.16 | 119.0 | 5.52 | 2.55E+05 |  |
| CCCCCCCCCOC(=O)CCCCCCCN(CCCCCCCC(=O)OC(CCCCCCCC)CCCCCCCC)CCOCCN(C)C [Compound 17, Heptadecan-9-yl 8-((2-(2-(dimethylamino)ethoxy)ethyl) (8-(nonyloxy)-8-oxooctyl)amino)octanoate] |  | 5.52E+05 | 9.95E+04 | 5.58E+06 |  | 7.72E+06 | 3.58E+06 | 6.79E+05 |  |  | lowest | 138.43 | 156.41 | 91.84 | 0.24 | 85.2 | 7.76 | 9.55E+04 | significantly lower flux |
| CCCCCCCCCOC(=O)CCCCCCCN(CCCCCCCC(=O)OC(CCCCCCCC)CCCCCCCC)C1CCCCC1O (stereo not shown) [Compound 22, Heptadecan-9-yl 8-((2-hydroxycyclohexyl)(8-(nonyloxy)-8-oxooctyl)amino)octanoate] |  | 4.00E+07 | 4.73E+05 | 1.57E+06 |  | 6.57E+08 | 3.89E+08 | 2.73E+07 |  |  |  | 90.54 | 976.50 | 96.00 | 0.22 | 80.2 | 6.21 | 1.16E+05 |  |
